Legend:
DDAH1 = DDAH1 gene expression (real-time RT-PCR) in endothelial cells; format: cell-based; conditions: human umbilical endothelial cells, 24 hours, FIG. 1A
Description: (§1) Human umbilical endothelial cells were seeded in 6-well plates (50,000 cells per well) and incubated with EGM (endothelial cell growth medium with bullet kit, Lonza) overnight. Then, triplicate wells were treated with indicated concentrations of cerivastatin in 2 ml of EGM. After 24 hours, total RNA was extracted using the RNeasy Kit (Qiagen, Valencia, Calif. After reverse transcription (RT) using the High Capacity cDNA Reverse Transcription Kit (Applied Biosystems, Foster City, Calif.), PCR was performed using an ABI Prism 7500 Sequence Detection System (Applied Biosystems, Foster City, Calif.) and QuantiTect SYBR Green PCR Master Mix (Qiagen, Valencia, Calif.). All reactions were carried out in triplicate, and each mRNA copy level was quantified using comparative CT method. Expression of actin was used as an endogenous control in all experiments and relative fold changes were calculated. All data were expressed as the means±standard deviation. The gene-specific forward and reverse primer sequences were • 5′-[…]-3′(SEQ ID NO: 2) and 5′-[…]-3′ (SEQ ID NO: 3) for actin; • 5′-[…]-3′ (SEQ ID NO: 4) and 5′-ggggtgttgaagcaat-3′ (SEQ ID NO: 5) for DDAH-1; • 5′-[…]-3′ (SEQ ID NO: 6) and 5′-[…]-3′ (SEQ ID NO: 7) for DDAH-2.

DDAH2 = DDAH2 gene expression (real-time RT-PCR) in endothelial cells; format: cell-based; conditions: human umbilical endothelial cells, 24 hours, dose dependent, FIG. 1B
Description: as §1

CCR2 = CCR2 gene expression (real-time RT-PCR) in THP-1 cells; format: cell-based; conditions: human THP-1 cells, TNF-α + 10 μM statin, FIG. 2B
Description: THP-1 cells were obtained from the American Tissue Type Culture Collection (ATCC). Cells were maintained in RPMI-1640 (Mediatech, Manassas, Va.) containing 10% fetal bovine serum (FBS; Sigma-Aldrich) and 1% penicillin/streptomycin (Sigma-Aldrich), and incubated in a humidified incubator containing 5% CO2/95% air at 37° C. In all experiments, cells were seeded at the concentration of 5×10^5 cells/mL in 12 well plates and then various statins were added to the medium. After 1 h, […] at a final concentration of 100 ng/ml or TNF-[…] at a final concentration of 10 ng/mL was added to the cultures. Cell pellets were collected for RNA and protein isolation.
Total RNA was extracted using the RNeasy Kit (Qiagen, Valencia, Calif.) according to the manufacturer's instructions. After reverse transcription (RT) using the High Capacity cDNA Reverse Transcription Kit (Applied Biosystems, Foster City, Calif.), PCR was performed using an ABI Prism 7500 Sequence Detection System (Applied Biosystems, Foster City, Calif.) and QuantiTect SYBR Green PCR Master Mix (Qiagen, Valencia, Calif.). All reactions were carried out in triplicate, and each mRNA copy level was quantified using comparative CT method. Expression of actin was used as an endogenous control in all experiments and relative fold changes were calculated. All data were expressed as the means±standard deviation. […]

rat model of PAH [1] = assay: PA pressure by right heart catheterization in MCT rat model of PAH; format: in vivo; conditions: intratracheal, twice weekly, 2 mg/ml in PBS, day 42, relative to MCT injection PAH model
Description: (§2) PAH was induced in adult male Sprague-Dawley rats (˜375 to 425 g, n=12, Harlan Laboratories) by a single, subcutaneous injection of monocrotnil (MCT) (60 mg/kg; n=24). Schultze, A. E. and Roth, R. A. J. Toxicol. Environ. Health. B, Crit. Rev. 1(4): 271-346 (1998). The animals injected with MCT were randomly assigned to 2 groups that received intratracheal (I.T.) aerosol instillation (MicroSprayer® Aerosolizer Model IA-1B, PennCentury, Inc.) of PBS twice weekly (200 μl; n=6), and a second group received IT. aerosol instillation of Cerivastatin twice weekly (2 mg/ml in PBS; n=6 I.T. instillations of PBS and Cerivastatin were administered the day of MCT injection until the rats were euthanized on day 42.
Echocardiography was performed at day 14, 28, and 42. Right heart catheterization was performed on day 42 before being euthanized. Sedation was induced by placing the rat in an anesthesia induction chamber with gas flow at 1 l/min, and the isoflurane was delivered via vaporizer at 3-4%. After induction, the rat was intubated and remained anesthetized with inhalant isoflurane at 1% for echo and 2% for right heart catheterization.
A 1.4-F micromanometer-tipped Millar pressure catheter (Millar Instruments) was used to measure systolic (sPAP), mean (mPAP), and diastolic PA pressure (dPAP) in all rats. […]

rat model of PAH [2] = assay: Echocardiography in MCT rat model of PAH; format: in vivo; conditions: intratracheal, twice weekly, 2 mg/ml in PBS
Description: PAH was induced in adult male Sprague-Dawley rats ( 375 to 425 g, n=12, Harlan Laboratories) by a single, subcutaneous injection of monocrotnil (MCT) (60 mg/kg; n=24). Schultze, A. E. and Roth, R. A. J. Toxicol. Environ. Health. B, Crit. Rev. 1(4): 271-346 (1998). The animals injected with MCT were randomly assigned to 2 groups that received intratracheal (I.T.) aerosol instillation (MicroSprayer® Aerosolizer Model IA-1B, PennCentury, Inc.) of PBS twice weekly (200 μl; n=6), and a second group received IT. aerosol instillation of Cerivastatin twice weekly (2 mg/ml in PBS; n=6 I.T. instillations of PBS and Cerivastatin were administered the day of MCT injection until the rats were euthanized on day 42. Echocardiography was performed at day 14, 28, and 42. Right heart catheterization was performed on day 42 before being euthanized. Sedation was induced by placing the rat in an anesthesia induction chamber with gas flow at 1 l/min, and the isoflurane was delivered via vaporizer at 3-4%. After induction, the rat was intubated and remained anesthetized with inhalant isoflurane at 1% for echo and 2% for right heart catheterization. After shaving the chest, 70% isopropyl alcohol was applied as the ultrasound transmission media and transthoracic echocardiography was performed (GE vivid i with […]-RS linear array transducer, 5.0-13.0 MHz). The 2-D modality was applied to measure PA diameter at the level of the pulmonary outflow tract from the parasternal short-axis view. PA acceleration time (PAAT) and PA flow velocity time integral (VTI) were measured using pulse-wave Doppler with the sample volume centrally positioned in the PA distal to the pulmonary valve. Angle correction was used to adjust the pulse-wave cursor such that it was positioned parallel to pulmonary artery flow. By combining PA VTI with the PA cross-sectional area, echocardiographically derived stroke volume was determined. M-mode was applied to measure right ventricular cavity thickness during end diastole using the parasternal long-axis view obtained from the right side of the rat.

rat model of PAH [3] = assay: RV hypertrophy (RV weight ratio) in MCT rat model of PAH; format: in vivo; conditions: intratracheal, twice weekly, 2 mg/ml in PBS, day 42, relative to MCT injection PAH model, FIG. 6
Description: as §2, with “42. After recording hemodynamic measurements and collecting blood, the animals were euthanized under deep anesthesia (isoflurane 5%) and the lungs and heart were isolated. The RV free wall was dissected from the left ventricle and interventricular septum (IVS), and the wet weight of each was recorded. RV hypertrophy was obtained as a RV weight/(LV+IVS weights) ratio.” for “42.”

[4] = test system: pulmonary aterial hypertension; conditions: injected intraperitoneally; cited from earlier work

Row | SMILES | effect on the expression of DDAH1 (relative mRNA level) (DDAH1) | effect on the expression of DDAH2 (relative mRNA level) (DDAH2) | CCR2 expression (CCR2) | systolic pulmonary artery pressure (sPAP) (rat model of PAH [1]; FIG. 3) | mean pulmonary artery pressure (mPAP) (rat model of PAH [1]; FIG. 4) | pulmonary artery acceleration time (PAAT) (rat model of PAH [2]; FIG. 7A (plotted in ms)) | mean right ventricle thickening (RV cavity thickness) (rat model of PAH [2]; relative to MCT injection PAH model, FIGS. 5A and 5B) | PAAT as percent of the control (rat model of PAH [2]; MCT alone 40.5% of the control, FIG. 7B) | right ventricular (RV) weight ratio (RV/(LV+septum)) (rat model of PAH [3]) | improvement of pulmonary arterial hypertension [4]
1 | COCc1c(C(C)C)nc(C(C)C)c(/C=C/[C@@H](O)C[C@@H](O)CC(=O)O)c1-c1ccc(F)cc1 [cerivastatin, (3R,5S,6E)-7-[4-(4-fluorophenyl)-5-(methoxymethyl)-2,6-bis(propan-2-yl)pyridin-3-yl]-3,5-dihydroxyhept-6-enoic acid] | relatively small and non-concentration dependent effect | more than 600% | reduces CCR2 | statistically significant decrease | statistically significant decrease | significantly increased | significantly reduced | 60.7 % of the control | significantly reduced | 
2 | CC(C)c1c(C(=O)Nc2ccccc2)c(-c2ccccc2)c(-c2ccc(F)cc2)n1CC[C@@H](O)C[C@@H](O)CC(=O)O [atorvastatin] |  |  |  |  |  |  |  |  |  | not

— patent US8586527B2, “Cerivastatin to treat pulmonary disorders” (priority 2011, dated 2013)
